# ChEMBL document CHEMBL3734705, “Synthesis and in vitro cytotoxicity of novel C-12 substituted-14-deoxy-andrographolide derivatives as potent anti-cancer agents” (2015)
# Legend:
# Assay type in all cases: functional
# MCF7 = experiment: Cytotoxicity against human MCF7 cells after 48 hrs by SRB assay; conditions: MCF7, 48 h
# [1] = Cytotoxicity against human LOXIMVI cells after 48 hrs by SRB assay; conditions: LOX IMVI
# SK-MEL-2 [2] = experiment: Cytotoxicity against human SK-MEL-2 cells after 48 hrs by SRB assay; conditions: SK-MEL-2, 48 h
# ACHN = experiment: Cytotoxicity against human ACHN cells after 48 hrs by SRB assay
# NCI-H322M = experiment: Cytotoxicity against human NCI-H322M cells after 48 hrs by SRB assay
# MDA-MB-435 = experiment: Cytotoxicity against human MDA-MB-435 cells after 48 hrs by SRB assay; conditions: MDA-MB-435, 48 h
# NCI-H226 = experiment: Cytotoxicity against human NCI-H226 cells after 48 hrs by SRB assay; conditions: NCI-H226, 48 h
# [3] = Cytotoxicity against human UO31 cells after 48 hrs by SRB assay; conditions: UO-31, 48 h
# [4] = Cytotoxicity against human NCI-ADR-RES cells after 48 hrs by SRB assay
# T47D = experiment: Cytotoxicity against human T47D cells after 48 hrs by SRB assay
# [5] = Cytotoxicity against human OVCAR5 cells after 48 hrs by SRB assay; conditions: OVCAR-5, 48 h
# NCI-H522 = experiment: Cytotoxicity against human NCI-H522 cells after 48 hrs by SRB assay; conditions: NCI-H522, 48 h
# [6] = Cytotoxicity against human TK10 cells after 48 hrs by SRB assay; conditions: TK-10, 48 h
# [7] = Cytotoxicity against human OVCAR4 cells after 48 hrs by SRB assay; conditions: OVCAR-4, 48 h; for CC50: read-out: LC50 (the source's name)
# SK-MEL-2 [8] = experiment: Cytotoxicity against human SK-MEL-2 cells assessed as growth level at 10 uM after 48 hrs by SRB assay
# K562 = experiment: Cytotoxicity against human K562 cells after 48 hrs by SRB assay; conditions: K562, 48 h
# [9] = Cytotoxicity against human OVCAR8 cells after 48 hrs by SRB assay; conditions: OVCAR-8, 48 h
# [10] = Cytotoxicity against human HCC2998 cells after 48 hrs by SRB assay; conditions: HCC 2998, 48 h
# [11] = Cytotoxicity against human SF268 cells after 48 hrs by SRB assay; conditions: SF-268, 48 h
# SK-MEL-5 = experiment: Cytotoxicity against human SK-MEL-5 cells after 48 hrs by SRB assay; conditions: SK-MEL-5, 48 h
# SK-MEL-28 = experiment: Cytotoxicity against human SK-MEL-28 cells after 48 hrs by SRB assay; conditions: SK-MEL-28, 48 h
# [12] = Cytotoxicity against human HCT15 cells after 48 hrs by SRB assay; conditions: HCT-15, 48 h
# HT-29 = experiment: Cytotoxicity against human HT-29 cells after 48 hrs by SRB assay; conditions: HT-29, 48 h
# A549 = experiment: Cytotoxicity against human A549 cells after 48 hrs by SRB assay; conditions: A549, 48 h
# [13] = Cytotoxicity against human HOP62 cells after 48 hrs by SRB assay; conditions: HOP-62, 48 h
# KM12 = experiment: Cytotoxicity against human KM12 cells after 48 hrs by SRB assay; conditions: KM12, 48 h
# [14] = Cytotoxicity against human Caki1 cells after 48 hrs by SRB assay; conditions: CAKI-1, 48 h
# [15] = Cytotoxicity against human IGROV1 cells after 48 hrs by SRB assay; conditions: IGROV-1, 48 h; for CC50: read-out: LC50 (the source's name)
# [16] = Cytotoxicity against human SNB19 cells after 48 hrs by SRB assay; conditions: SNB-19, 48 h
# [17] = Cytotoxicity against human HCT116 cells after 48 hrs by SRB assay; conditions: HCT-116, 48 h
# NCI-H23 = experiment: Cytotoxicity against human NCI-H23 cells after 48 hrs by SRB assay; conditions: NCI-H23, 48 h
# [18] = Cytotoxicity against human RXF393 cells after 48 hrs by SRB assay; conditions: RXF 393, 48 h
# [19] = Cytotoxicity against human HOP92 cells after 48 hrs by SRB assay; conditions: HOP-92, 48 h
# NCI-H460 = experiment: Cytotoxicity against human NCI-H460 cells after 48 hrs by SRB assay; conditions: NCI-H460, 48 h; for CC50: read-out: LC50 (the source's name)
structure (smiles),measurement,setting,value
C=C1CC[C@@H]2[C@](C)(COC(C)=O)[C@H](OC(C)=O)CC[C@@]2(C)[C@@H]1CC(Nc1ccc(S(=O)(=O)NC(C)=O)cc1)C1=CCOC1=O (mixture of isomers),GI50,MCF7,1.92 µM
same,LC50 (50% lethal concentration),MCF7,> 75 µM
same,TGI,MCF7,11.3 µM
same,GI50,[1],1.25 µM
same,LC50,[1],4.67 µM
same,TGI,[1],2.42 µM
same,GI50,SK-MEL-2 [2],8.68 µM
same,LC50 (concentration causing 50% net cell kill),SK-MEL-2 [2],42.1 µM
same,TGI,SK-MEL-2 [2],19.1 µM
same,GI50,ACHN,7.54 µM
same,LC50,ACHN,36.3 µM
same,TGI,ACHN,16.5 µM
same,GI50,NCI-H322M,10.3 µM
same,LC50,NCI-H322M,40.1 µM
same,TGI,NCI-H322M,20.3 µM
same,GI50,MDA-MB-435,2.79 µM
same,LC50 (50% lethal concentration),MDA-MB-435,30.6 µM
same,TGI,MDA-MB-435,10.6 µM
same,GI50,NCI-H226,1.92 µM
same,LC50,NCI-H226,> 75 µM
same,TGI,NCI-H226,4.62 µM
same,GI50,[3],3.71 µM
same,LC50 (concentration killing 50% of cells),[3],31.7 µM
same,TGI,[3],13.2 µM
same,GI50,[4],2.51 µM
same,LC50,[4],> 75 µM
same,TGI,[4],9.14 µM
same,GI50,T47D,2.46 µM
same,LC50 (concentration killing 50% of cells),T47D,> 75 µM
same,TGI,T47D,12 µM
same,GI50,[5],4.82 µM
same,LC50 (concentration causing 50% net cell kill),[5],39.5 µM
same,TGI,[5],15.4 µM
same,GI50,NCI-H522,1.44 µM
same,LC50,NCI-H522,24.1 µM
same,TGI,NCI-H522,4.42 µM
same,GI50,[6],8.02 µM
same,LC50,[6],35.6 µM
same,TGI,[6],16.9 µM
same,GI50,[7],4.14 µM
same,TGI,[7],13.7 µM
same,CC50,[7],33.7 µM
same,Activity,SK-MEL-2 [8],-7.41%
same,GI50,K562,2.58 µM
same,LC50 (50% lethal concentration),K562,> 75 µM
same,TGI,K562,17.6 µM
same,GI50,[9],2.25 µM
same,LC50,[9],38.6 µM
same,TGI,[9],8.42 µM
same,GI50,[10],7.51 µM
same,LC50,[10],40.1 µM
same,TGI,[10],17.3 µM
same,GI50,[11],8.78 µM
same,LC50,[11],47.9 µM
same,TGI,[11],20.5 µM
same,GI50,SK-MEL-5,3.22 µM
same,LC50 (concentration killing 50% of cells),SK-MEL-5,30.7 µM
same,TGI,SK-MEL-5,11.5 µM
same,GI50,SK-MEL-28,3.69 µM
same,LC50 (lethal concentration 50%),SK-MEL-28,34.2 µM
same,TGI,SK-MEL-28,13.2 µM
same,GI50,[12],1.53 µM
same,LC50,[12],38 µM
same,TGI,[12],4.36 µM
same,GI50,HT-29,1.57 µM
same,LC50,HT-29,17.9 µM
same,TGI,HT-29,3.55 µM
same,GI50,A549,8.41 µM
same,LC50,A549,40 µM
same,TGI,A549,18.3 µM
same,GI50,[13],10.8 µM
same,LC50,[13],41.1 µM
same,TGI,[13],21.1 µM
same,GI50,KM12,5.11 µM
same,LC50,KM12,40.5 µM
same,TGI,KM12,15.9 µM
same,GI50,[14],3.31 µM
same,LC50,[14],29 µM
same,TGI,[14],11.2 µM
same,GI50,[15],5.31 µM
same,TGI,[15],15.4 µM
same,CC50,[15],37.1 µM
same,GI50,[16],8.19 µM
same,LC50 (concentration killing 50% of cells),[16],43.7 µM
same,TGI,[16],18.9 µM
same,GI50,[17],1.67 µM
same,LC50 (concentration killing 50% of cells),[17],12.3 µM
same,TGI,[17],3.66 µM
same,GI50,NCI-H23,5.52 µM
same,LC50,NCI-H23,46.4 µM
same,TGI,NCI-H23,17.4 µM
same,GI50,[18],1.96 µM
same,LC50 (concentration causing 50% net cell kill),[18],18.8 µM
same,TGI,[18],4.69 µM
same,GI50,[19],6.5 µM
same,LC50,[19],35.5 µM
same,TGI,[19],15.9 µM
same,GI50,NCI-H460,6.72 µM
same,TGI,NCI-H460,17.9 µM
same,CC50,NCI-H460,44.7 µM
C=C1CC[C@@H]2[C@](C)(COC(C)=O)[C@H](OC(C)=O)CC[C@@]2(C)[C@@H]1C/C=C1/C(=O)OC[C@H]1OC(C)=O,GI50,MCF7,1.83 µM
same,LC50 (50% lethal concentration),MCF7,> 100 µM
same,TGI,MCF7,6.79 µM
same,GI50,[1],1.42 µM
same,LC50,[1],5.73 µM
same,TGI,[1],2.85 µM
same,GI50,SK-MEL-2 [2],10.7 µM
same,LC50 (concentration causing 50% net cell kill),SK-MEL-2 [2],64.3 µM
same,TGI,SK-MEL-2 [2],26.3 µM
same,GI50,ACHN,1.71 µM
same,LC50,ACHN,6.06 µM
same,TGI,ACHN,3.22 µM
same,GI50,NCI-H322M,16 µM
same,LC50,NCI-H322M,55.3 µM
same,TGI,NCI-H322M,29.7 µM
same,GI50,MDA-MB-435,2.63 µM
same,LC50 (50% lethal concentration),MDA-MB-435,32.2 µM
same,TGI,MDA-MB-435,10.1 µM
same,GI50,NCI-H226,2.14 µM
same,LC50,NCI-H226,19.9 µM
same,TGI,NCI-H226,5.42 µM
same,GI50,[3],1.91 µM
same,LC50 (concentration killing 50% of cells),[3],7.92 µM
same,TGI,[3],3.89 µM
same,GI50,[4],4.22 µM
same,LC50,[4],> 100 µM
same,TGI,[4],19.8 µM
same,GI50,T47D,2.86 µM
same,LC50 (concentration killing 50% of cells),T47D,> 100 µM
same,TGI,T47D,13.8 µM
same,GI50,[5],1.93 µM
same,LC50 (concentration causing 50% net cell kill),[5],7.97 µM
same,TGI,[5],3.92 µM
same,GI50,NCI-H522,1.52 µM
same,LC50,NCI-H522,8.67 µM
same,TGI,NCI-H522,3.63 µM
same,GI50,[6],3.81 µM
same,LC50,[6],38.2 µM
same,TGI,[6],13.3 µM
same,GI50,[7],3.57 µM
same,TGI,[7],15.4 µM
same,CC50,[7],41.8 µM
same,GI50,K562,2.63 µM
same,LC50 (50% lethal concentration),K562,> 100 µM
same,TGI,K562,32.1 µM
same,GI50,[9],3.38 µM
same,LC50,[9],> 100 µM
same,TGI,[9],22 µM
same,GI50,[10],12.2 µM
same,LC50,[10],61.2 µM
same,TGI,[10],27.3 µM
same,GI50,[11],8.56 µM
same,LC50,[11],55.5 µM
same,TGI,[11],22.7 µM
same,GI50,SK-MEL-5,9.5 µM
same,LC50 (concentration killing 50% of cells),SK-MEL-5,51 µM
same,TGI,SK-MEL-5,22.4 µM
same,GI50,SK-MEL-28,1.75 µM
same,LC50 (lethal concentration 50%),SK-MEL-28,6.51 µM
same,TGI,SK-MEL-28,3.38 µM
same,GI50,[12],1.58 µM
same,LC50,[12],65.5 µM
same,TGI,[12],4.33 µM
same,GI50,HT-29,2.58 µM
same,LC50,HT-29,> 100 µM
same,GI50,A549,11.9 µM
same,LC50,A549,79.3 µM
same,TGI,A549,30.7 µM
same,GI50,[13],4.4 µM
same,LC50,[13],> 100 µM
same,TGI,[13],21.3 µM
same,GI50,KM12,10.5 µM
same,LC50,KM12,73.4 µM
same,TGI,KM12,27.7 µM
same,GI50,[14],6.67 µM
same,LC50,[14],44.3 µM
same,TGI,[14],19.6 µM
same,GI50,[15],2.41 µM
same,TGI,[15],6.23 µM
same,CC50,[15],32 µM
same,GI50,[16],10.8 µM
same,LC50 (concentration killing 50% of cells),[16],55.6 µM
same,TGI,[16],24.5 µM
same,GI50,[17],1.45 µM
same,LC50 (concentration killing 50% of cells),[17],6.15 µM
same,TGI,[17],2.98 µM
same,GI50,NCI-H23,6.22 µM
same,LC50,NCI-H23,66.9 µM
same,TGI,NCI-H23,23 µM
same,GI50,[18],1.95 µM
same,LC50 (concentration causing 50% net cell kill),[18],8.75 µM
same,TGI,[18],4.13 µM
same,GI50,[19],13.2 µM
same,LC50,[19],52.7 µM
same,TGI,[19],26.4 µM
same,GI50,NCI-H460,18.6 µM
same,TGI,NCI-H460,37.7 µM
same,CC50,NCI-H460,76.2 µM
